According to patent publication US12448369B2 (Edgewise Therapeutics, Inc., priority 2023, dated 2025):

How the values were obtained:
[1] = system: Porcine atria myofibrils (atrial myosin ATPase); experiment: Myofibril ATPase assay, porcine atria myofibrils; assay type: biochemical; conditions: porcine atria myofibrils; Y75 value (75% activity relative to no compound)
In short: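 Y75 (25% inhibition) or Y125 (activation) values come from 4-parameter logistic fits of vehicle-normalized rates. Rates are linear-regression slopes of NADH absorbance at 340 nm, read kinetically over 75 min, with ADP coupled to NADH oxidation via pyruvate kinase/lactate dehydrogenase.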

[2] = molecular target: T1, Porcine ventricle myofibrils (ventricular myosin ATPase) (Sus scrofa, UniProt P79293); experiment: Myofibril ATPase assay, porcine ventricle myofibrils; assay type: biochemical, porcine (Yucatan minipigs); conditions: porcine ventricle myofibrils; Y75 value
T1 construct: Myofibrils from porcine cardiac muscle was isolated from the left ventricle of Yucatan minipigs; tissue Exemplar Genetics; host or cells: left ventricle of Yucatan minipigs, myofibrils prepared in house
In short: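 Read-out: A340 kinetic, NADH consumption coupled to ADP via PK-LDH, 75 min. Yucatan minipig LV myofibrils, pCa buffer (PIPES/CaCl2/EGTA, pH 7.0). Linear-regression slope (mAU/min), vehicle = 100%, 4PL fit; Y75 or Y125 reported.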

[3] = system: Rabbit Psoas myofibrils (skeletal myosin ATPase); experiment: Myofibril ATPase assay, rabbit psoas (skeletal) myofibrils; assay type: biochemical; conditions: rabbit psoas myofibrils; Y75 value
In short: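 Values are concentrations giving 75% (Y75) or 125% (Y125) of vehicle ATPase activity, from 4-parameter logistic fits of normalized rates. Rates came from linear regression of A340 over 75 min, NADH oxidation coupled to ADP via PK-LDH. Enzyme source: skeletal myofibrils from rabbit psoas, pH 7.0 pCa buffer.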

T1 sequence (P79293 whole entry): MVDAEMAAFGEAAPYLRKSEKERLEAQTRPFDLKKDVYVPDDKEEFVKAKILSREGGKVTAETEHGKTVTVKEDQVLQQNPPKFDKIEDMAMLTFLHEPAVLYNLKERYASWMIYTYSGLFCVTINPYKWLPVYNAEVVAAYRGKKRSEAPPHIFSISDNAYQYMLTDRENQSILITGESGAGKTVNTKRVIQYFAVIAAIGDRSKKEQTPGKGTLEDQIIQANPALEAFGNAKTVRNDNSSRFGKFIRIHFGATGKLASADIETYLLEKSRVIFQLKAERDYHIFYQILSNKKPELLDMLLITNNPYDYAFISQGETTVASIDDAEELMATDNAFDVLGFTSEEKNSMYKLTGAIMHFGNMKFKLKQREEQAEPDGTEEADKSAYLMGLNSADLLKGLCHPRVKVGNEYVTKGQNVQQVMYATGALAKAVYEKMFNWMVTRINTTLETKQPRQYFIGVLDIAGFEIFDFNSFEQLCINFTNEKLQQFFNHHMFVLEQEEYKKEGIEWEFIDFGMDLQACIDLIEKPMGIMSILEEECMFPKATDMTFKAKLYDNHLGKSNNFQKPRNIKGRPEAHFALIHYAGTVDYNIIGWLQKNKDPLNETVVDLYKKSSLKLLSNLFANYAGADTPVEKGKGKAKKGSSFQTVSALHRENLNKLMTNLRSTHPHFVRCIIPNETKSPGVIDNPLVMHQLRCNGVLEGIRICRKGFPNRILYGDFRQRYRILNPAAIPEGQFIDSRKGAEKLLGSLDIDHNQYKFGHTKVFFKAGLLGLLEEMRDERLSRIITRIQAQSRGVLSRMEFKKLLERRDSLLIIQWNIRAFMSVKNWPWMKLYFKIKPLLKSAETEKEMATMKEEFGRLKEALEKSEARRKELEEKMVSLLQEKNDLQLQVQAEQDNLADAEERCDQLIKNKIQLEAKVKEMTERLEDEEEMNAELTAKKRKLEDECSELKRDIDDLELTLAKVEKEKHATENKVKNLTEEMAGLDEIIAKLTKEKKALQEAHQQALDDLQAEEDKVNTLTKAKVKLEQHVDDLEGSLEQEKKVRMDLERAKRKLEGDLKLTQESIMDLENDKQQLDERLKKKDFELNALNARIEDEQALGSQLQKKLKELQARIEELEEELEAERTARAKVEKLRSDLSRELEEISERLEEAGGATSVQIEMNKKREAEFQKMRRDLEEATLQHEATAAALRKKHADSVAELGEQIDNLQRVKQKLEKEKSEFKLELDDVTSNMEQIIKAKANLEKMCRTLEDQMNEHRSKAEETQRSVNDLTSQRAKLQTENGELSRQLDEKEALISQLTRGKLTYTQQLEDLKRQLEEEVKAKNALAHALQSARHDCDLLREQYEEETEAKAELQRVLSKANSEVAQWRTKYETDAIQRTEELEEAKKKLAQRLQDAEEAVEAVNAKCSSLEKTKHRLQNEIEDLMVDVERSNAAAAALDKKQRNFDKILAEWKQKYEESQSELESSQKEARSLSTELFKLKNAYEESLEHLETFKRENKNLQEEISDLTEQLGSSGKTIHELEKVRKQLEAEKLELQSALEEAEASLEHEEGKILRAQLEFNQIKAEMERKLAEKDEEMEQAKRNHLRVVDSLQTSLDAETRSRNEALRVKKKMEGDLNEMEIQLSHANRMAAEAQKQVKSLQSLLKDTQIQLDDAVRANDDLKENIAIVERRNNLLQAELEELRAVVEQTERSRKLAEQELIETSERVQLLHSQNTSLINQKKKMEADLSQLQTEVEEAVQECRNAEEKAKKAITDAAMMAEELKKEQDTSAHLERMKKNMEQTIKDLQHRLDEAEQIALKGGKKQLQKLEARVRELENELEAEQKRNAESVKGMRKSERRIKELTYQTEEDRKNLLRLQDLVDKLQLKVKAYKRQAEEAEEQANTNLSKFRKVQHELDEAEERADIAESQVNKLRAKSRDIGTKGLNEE

Row | SMILES | Atrial EC25 [1] [µM] | Ventricular EC25 [2] [µM] | Skeletal EC25 [3] [µM]
1 | Cc1c(CC(=O)N[C@@H]2COc3cccnc32)c(=O)[nH]c2ccnc(C#N)c12 (single isomer, unassigned) [compound 212] | 14.71 | 35.35 | 2.21
2 | Cc1c(CC(=O)N[C@H]2COc3cccnc32)c(=O)[nH]c2ccnc(C#N)c12 (single isomer, unassigned) [compound 213] | 100.00 | 100.00 | 7.67
3 | Cc1c(CC(=O)N[C@H](C)c2ncc(F)cc2F)c(=O)[nH]c2ccc(O)nc12 (single isomer, unassigned) [compound 222] | 100.00 | 100.00 | 100.00
4 | Cc1c(CC(=O)N[C@@H](C)c2ncc(F)cc2F)c(=O)[nH]c2ccc(O)nc12 (single isomer, unassigned) [compound 223] | 12.99 | 61.19 | 16.17
5 | Cc1c(CC(=O)N[C@H](C)c2ncc(C#N)cc2F)c(=O)[nH]c2ccnc(C(F)(F)F)c12 (single isomer, unassigned) [compound 226] | 7.58 | 100.00 | 0.27
6 | Cc1c(CC(=O)N[C@@H](C)c2ncc(C#N)cc2F)c(=O)[nH]c2ccnc(C(F)(F)F)c12 (single isomer, unassigned) [compound 227] | 0.09 | 0.62 | 0.07
7 | Cc1nccc2[nH]c(=O)c(CC(=O)N[C@@H]3CCc4cc(C#N)cnc43)c(C)c12 (single isomer, unassigned) [compound 233] | 100.00 | 100.00 | 5.72
8 | Cc1nccc2[nH]c(=O)c(CC(=O)N[C@H]3CCc4cc(C#N)cnc43)c(C)c12 (single isomer, unassigned) [compound 234] | 100.00 | 100.00 | 20.28
9 | Cc1nccc2[nH]c(=O)c(CC(=O)N[C@H](CO)c3ncc(C#N)cc3F)c(C)c12 (single isomer, unassigned) [compound 247] | 34.93 | 100.00 | 4.60
10 | Cc1c(CC(=O)N[C@H](C)c2ncc(F)cc2F)c(=O)[nH]c2ccc(C#N)nc12 (single isomer, unassigned) [compound 249] | 100.00 | 100.00 | 100.00
11 | Cc1c(CC(=O)N[C@@H](C)c2ncc(F)cc2F)c(=O)[nH]c2ccc(C#N)nc12 (single isomer, unassigned) [compound 250] | 2.60 | 80.59 | 16.64
12 | Cc1nccc2[nH]c(=O)c(CC(=O)N[C@@H]3COc4cccnc43)c(C)c12 (single isomer, unassigned) [compound 251] | 100.00 | 100.00 | 100.00
13 | Cc1nccc2[nH]c(=O)c(CC(=O)N[C@H]3COc4cccnc43)c(C)c12 (single isomer, unassigned) [compound 252] | 100.00 | 100.00 | 100.00

Now from value to molecule:

Row | Atrial EC25 [1] [µM] | Ventricular EC25 [2] [µM] | Skeletal EC25 [3] [µM] | SMILES
14 | 0.03 | 0.14 | 0.01 | Cc1c(CC(=O)N[C@@H](C)c2ccc(C#N)cc2F)c(=O)[nH]c2ccc(C(F)(F)F)nc12 (single isomer, unassigned) [compound 209]
15 | 100.00 | 100.00 | 23.30 | Cc1c(CC(=O)N[C@H](C)c2ccc(S(C)(=O)=O)cc2F)c(=O)[nH]c2ccnc(C#N)c12 (single isomer, unassigned) [compound 214]
16 | 100.00 | 100.00 | 100.00 | Cc1c(CC(=O)N[C@@H](C)c2ccc(S(C)(=O)=O)cc2F)c(=O)[nH]c2ccnc(C#N)c12 (single isomer, unassigned) [compound 215]
17 | 6.57 | 100.00 | 0.36 | Cc1c(CC(=O)N[C@H](CO)c2ccc(C#N)cc2F)c(=O)[nH]c2ccnc(C(F)(F)F)c12 (single isomer, unassigned) [compound 224]
18 | 0.08 | 2.46 | 0.03 | Cc1c(CC(=O)N[C@@H](CO)c2ccc(C#N)cc2F)c(=O)[nH]c2ccnc(C(F)(F)F)c12 (single isomer, unassigned) [compound 225]
19 | 100.00 | 100.00 | 100.00 | Cc1c(CC(=O)N[C@H](CO)c2ncccc2F)c(=O)[nH]c2ccnc(C#N)c12 (single isomer, unassigned) [compound 235]
20 | 38.11 | 100.00 | 0.59 | Cc1c(CC(=O)N[C@@H](CO)c2ncccc2F)c(=O)[nH]c2ccnc(C#N)c12 (single isomer, unassigned) [compound 236]
21 | 8.52 | 11.53 | 2.87 | Cc1nccc2[nH]c(=O)c(CC(=O)N[C@H](CO)c3ccc(C#N)cc3F)c(C)c12 (single isomer, unassigned) [compound 238]
22 | 0.69 | 4.21 | 0.17 | Cc1c(CC(=O)N[C@H](CO)c2ccc(C#N)cc2F)c(=O)[nH]c2ccnc(C#N)c12 (single isomer, unassigned) [compound 241]
23 | 0.09 | 0.52 | 0.02 | Cc1c(CC(=O)N[C@@H](CO)c2ccc(C#N)cc2F)c(=O)[nH]c2ccnc(C#N)c12 (single isomer, unassigned) [compound 242]
24 | 0.56 | 2.20 | 0.17 | Cc1nccc2[nH]c(=O)c(CC(=O)N[C@@H](CO)c3ccc(C#N)cc3F)c(C)c12 (single isomer, unassigned) [compound 243]
25 | 8.37 | 9.46 | 0.93 | Cc1c(CC(=O)N[C@H](CO)c2ncc(C#N)cc2F)c(=O)[nH]c2ccnc(C#N)c12 (single isomer, unassigned) [compound 245]
26 | 0.13 | 0.15 | 0.03 | Cc1c(CC(=O)N[C@@H](CO)c2ncc(C#N)cc2F)c(=O)[nH]c2ccnc(C#N)c12 (single isomer, unassigned) [compound 246]
27 | 0.86 | 3.01 | 0.17 | Cc1nccc2[nH]c(=O)c(CC(=O)N[C@@H](CO)c3ncc(C#N)cc3F)c(C)c12 (single isomer, unassigned) [compound 248]
28 | 100.00 | 100.00 | 100.00 | Cc1nccc2[nH]c(=O)c(CC(=O)N[C@H](C)c3ccc(C#N)cn3)c(C)c12 (single isomer, unassigned) [compound 253]
